# Experiments:
# JNK/SAPK and p38 = settings: Pierce et al., J Biol Chem 272:21096-103, 1997; cited from earlier work
# [1] = system: BxPc-3 pancreatic cancer cells; assay: Athymic mouse model of peritoneal carcinomatosis (IP cancer cells, bioluminescent imaging, 9 days); assay type: in vivo; settings: BxPc-3 IP; BAY 11-7085 5 mg/kg IP 24 h before, then every 3 days for 9 days
# Experimental: (§1) Twenty-four hours later, […] Su.86 or BxPC-3 pancreatic cancer cells, that were stably transfected with a firefly luciferase construct, were delivered IP. […] At the end of treatment, the mice received luciferin IP and sacrificed. The abdominal cavities were exposed and the mice placed immediately in a bioluminescent imager and photographed. The individual intraabdominal peritoneal tumors were counted. The subset of tumor implants limited to the liver surface was determined as well. […] The proportion of mice with peritoneal and/or hepatic tumor implants were compared using a test of proportions (*p<0.05).
# [2] = system: Su.86 pancreatic cancer cells; assay: as above; assay type: in vivo; settings: Su.86 IP; BAY 11-7085 5 mg/kg IP 24 h before, then every 3 days for 9 days
# Experimental: as §1
# FLIP = FLIP immunoblot in HT-29 cells; assay type: cell-based, human
# Experimental: The data points represent the means of triplicate experiments and the error bars the standard errors of the means. […] The percent of apoptotic cells was then determined by the annexin V assay. […] The results shown are typical of two separate experiments. […] Immunoblots were performed for c-IAP-2, TRAF-1, TRAF-2, and FLIP. All lanes contain equal total protein.
# The cells were washed twice in ice cold PBS and then lysed in 4° C. lysis buffer (50 mM HEPES, 150 mM NaCl, 1.5 mM MgCl2, 1 mM EGTA, 100 mM NaF, 10 mM Na2PO4, 1 mM Na3VO4, 10% glycerol, 1% TRITON™ X-100, and 1 μg/mL each of aprotinin, leupeptin, chymostatin, pepstatin) and clarified at 12,000 rpm at 4° C. for 15 minutes. The lysates were normalized for total protein concentration. […]
# For immunodetection, the blocked blots were probed with primary antibody for 2 hours at 4° C. on a rocker. […] Alkaline phosphatase was detected by a colorimetric reaction using a BCIP (5-bromo-4-chloro-3-indolyl phosphate)/NBT (nitroblue tetrazolium) kit (Zymed).
# Since HCT-116 colon cancer cells have relatively low levels of FLIP compared with other cancer cell lines (FIG. 13A), they were transfected with human c-FLIP. HCT-116 cells that were transfected with human c-FLIP or empty vector were transiently suspended and allowed to readhere in the presence of BAY 11-7085 for 8 hours. […]
# [3] = system: pancreatic (Su.86, PL-45) and colon cancer cells (HT-29); assay: Cleaved PARP western blot during readhesion; assay type: cell-based, human; settings: 10-20 μM BAY 11-7085; 8 hours
# Experimental: FIG. 10 is a graph showing that BAY 11-7085 induces apoptosis of pancreatic and colon cancer cells during readhesion. Pancreatic (Su.86, PL-45) and colon cancer cells (HT-29) were transiently suspended and allowed to readhere in the presence or absence of vehicle or various concentrations of BAY 11-7085 for 8 hours. The floating and adherent cells were collected and lysed. Western blots for cleaved PARP were performed to determine if the cells were undergoing apoptosis (FIG. 10A). Transiently suspended pancreatic cancer cells ([…] per well) were allowed to readhere in the presence of vehicle or various concentrations of BAY 11-7085 for 24 hours. Nonadherent apoptotic cells were washed away and the remaining adherent cells stained with crystal violet and then dried. The crystal violet stained cells were lysed and the absorbance read in a plate spectrophotometer (FIG. 10B). […] The results are expressed as a percentage of cells surviving compared with vehicle alone.
# BxPc-3, PL-45, Su.86.86 and HT-29 cells were transiently suspended and treated in vitro with varying concentrations of BAY 11-7085 or DMSO for four to eight hours. […] The degree of apoptosis was determined by western blotting for cleaved PARP.
smiles,measurement,setting,value
"CC(C)(C)c1ccc(S(=O)(=O)/C=C/C#N)cc1 [BAY 11-7085, (2E)-3-[4-(tertiarybutylphenyl)sulfonyl]-2-propenenitrile]",activation of JNK/SAPK and p38,JNK/SAPK and p38,activate JNK/SAPK and p38
same,% with Liver Implants,[1],29%
same,% with Peritoneal Implants,[1],71%
same,% with Liver Implants,[2],0%
same,% with Peritoneal Implants,[2],33%
same,expression of the 54 kilodalton (long) isoform of FLIP,"FLIP; adherent HT-29, 20 μM",only a slight diminution
same,FLIP expression in readhering HT-29 cells,"FLIP; readhering HT-29, 3 hours",caused the down-regulation of FLIP after only 3 hours
same,apoptosis (cleaved PARP levels) during cell readhesion,[3],increased apoptosis (cleaved PARP levels)

# From US20110251135A1, “INHIBITORS OF PERITONEAL SEEDING OF CANCER CELLS” (University of Utah Research Foundation, priority 2008, published 2011)
